Results taken from patent publication US6867211B2, “4-Pyridyl-and 2,4-pyrimidinyl-substituted pyrrole derivatives and their use in pharmacy” (Merckle GmbH, priority 2000, dated 2005).

Assays:
Assay type in all cases: cell-based
IL-1β [1] = assay: In vitro test procedure using human whole blood, LPS-stimulated, IL-1β by ELISA; details: whole-blood method; for IC50: Homo sapiens
Protocol: (§1) In vitro Test Procedure Using Human Whole Blood
(§2) Human potassium-EDTA whole blood (at 400 μl) is preincubated with test substance for 15 min. at 37° C. in a CO2 incubator (5% CO2; 95% moisture-saturated air). The samples are then stimulated for 4 hours with 1 μg/ml of LPS (E. coli 026:B6) at 37° C. in a CO2 incubator (5% CO2; 95% moisture-saturated air). The reaction is ended by placing the samples on ice, addition of DPBS buffer and subsequent centrifugation (1000×g; 15 min). The plasma supernatant is used for the quantification of IL-1β and TNFα by means of ELISA.

TNFα [2] = assay: In vitro test procedure using human whole blood, LPS-stimulated, TNFα by ELISA; details: whole-blood method; for IC50: Homo sapiens
Protocol: as §1, §2

5-lipoxygenase = target: T1, 5-lipoxygenase (Homo sapiens, UniProt P09917); assay: In vitro test system for determining the inhibition of 5-lipoxygenase (LTB4 from human granulocytes, A 23187, ELISA); details: for IC50: human granulocytes, read-out: 5-LO IC50
T1 construct: Human granulocytes are used as a source of the 5-lipoxygenase; endogenous in cells; host or cells: human granulocytes isolated from heparinised blood on a Percoll gradient
T1 sequence (P09917 1-674): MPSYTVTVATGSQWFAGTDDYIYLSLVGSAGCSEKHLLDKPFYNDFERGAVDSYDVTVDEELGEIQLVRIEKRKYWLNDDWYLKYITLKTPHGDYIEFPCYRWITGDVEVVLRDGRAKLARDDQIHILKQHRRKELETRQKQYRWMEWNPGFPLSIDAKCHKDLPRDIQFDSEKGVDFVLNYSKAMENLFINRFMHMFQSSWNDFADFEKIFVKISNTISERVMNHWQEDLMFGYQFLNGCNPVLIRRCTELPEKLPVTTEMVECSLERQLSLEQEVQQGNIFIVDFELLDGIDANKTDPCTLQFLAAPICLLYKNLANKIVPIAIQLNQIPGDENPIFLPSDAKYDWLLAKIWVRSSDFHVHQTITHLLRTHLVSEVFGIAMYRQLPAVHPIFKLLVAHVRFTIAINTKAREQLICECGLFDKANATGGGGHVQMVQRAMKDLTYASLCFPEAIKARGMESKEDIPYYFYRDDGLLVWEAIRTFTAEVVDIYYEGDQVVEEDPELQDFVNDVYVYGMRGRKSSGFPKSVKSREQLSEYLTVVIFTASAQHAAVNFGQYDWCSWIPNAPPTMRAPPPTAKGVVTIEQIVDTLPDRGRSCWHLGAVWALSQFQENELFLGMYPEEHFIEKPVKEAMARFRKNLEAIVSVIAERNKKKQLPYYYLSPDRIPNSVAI
Protocol: In vitro Test System for Determining the Inhibition of 5-lipoxygenase
Human granulocytes are used as a source of the 5-lipoxygenase. LTB4 (leukotriene B4) is formed from endogenous arachidonic acid by means of stimulation with calcium ionophore A 23187. The granulocytes are isolated and the enzyme reaction is carried out according to known processes (see Arch. Pharm. Pharm. Med. Chem. 330, 307-312 (1997)).
The blood, which is protected from clotting with heparin, is centrifuged on a discontinuous Percoll® gradient and the granulocyte layer is pipetted off. After lysis of the erythrocytes, the granulocytes are washed a number of times and then adjusted to a specific cell count. The enzyme reaction is then started with calcium ionophore A 23187 in the presence or absence of the test substance after addition of Ca2+. The synthesis of the leukotrienes is stopped after 1.5 minutes. The samples are centrifuged off and the supernatant is diluted. LTB4 is determined quantitatively by means of ELISA.

IL-1β [3] = assay: In vitro test procedure using PBMCs, LPS-stimulated, IL-1β by ELISA; details: Homo sapiens, PBMC; for inhibition at 10 µM: at 10 μmol
Protocol: (§3) In vitro Test Procedure Using PBMCs
(§4) The mononuclear cells (PBMCs) are isolated from human potassium-EDTA whole blood diluted 1:3 by means of density gradient centrifugation (Histopaque®-1.077). After 2 washing steps with DPBS buffer, the mononuclear cells are resuspended in macrophage-SFM medium and adjusted to a cell count of 1×10^6 cells/ml.
(§5) The PBMCs suspension (at 390 μl) is preincubated with test substance for 15 min at 37° C. in a CO2 incubator (5% CO2; 95% moisture-saturated air). The samples are subsequently stimulated for 4 hours with 1 μg/ml LPS (E.coli 026:B6) at 37° C. in a CO2 incubator (5% CO2, 95% moisture-saturated air). The reaction is ended by placing the samples on ice, addition of DPBS buffer and centrifugation (15880×g; 12 min). The supernatant is used for the quantification of IL-1β and TNFα by means of ELISA.

TNFα [4] = assay: In vitro test procedure using PBMCs, LPS-stimulated, TNFα by ELISA; details: Homo sapiens, PBMC; for inhibition at 10 µM: at 10 μmol
Protocol: as §3, §4, §5

cyclooxygenase-1 = target: T2, cyclooxygenase-1 (Homo sapiens, UniProt P23219); assay: In vitro test system for determining the inhibition of cyclooxygenase-1 (PGE2 from human platelets, calcium ionophore, ELISA); details: for COX-1 percentage inhibition: at 10 μmol
T2 construct: endogenous in cells; host or cells: human platelets isolated on a discontinuous Percoll gradient
Protocol: In vitro Test System for Determining the Inhibition of Cyclooxygenase-1
In this test system, the amount of prostaglandin E2 formed from human platelets after addition of calcium ionophore is determined by means of ELISA. In this process, the platelets are obtained after centrifugation on a discontinuous Percoll® gradient. The enzyme reaction and the determination of the metabolites formed is carried out in principle as in the determination of 5-lipoxygenase inhibition. Differences exist with respect to the incubation time. Furthermore, the addition of a thromboxane synthesis inhibitor is necessary (see Arch. Pharm. Pharm. Med. Chem. 330, 307-312 (1997)).

[5] = 4 h, read-out: IL-1β percentage inhibition
[6] = 4 h, read-out: TNFα percentage inhibition

T2 sequence (P23219 24-599): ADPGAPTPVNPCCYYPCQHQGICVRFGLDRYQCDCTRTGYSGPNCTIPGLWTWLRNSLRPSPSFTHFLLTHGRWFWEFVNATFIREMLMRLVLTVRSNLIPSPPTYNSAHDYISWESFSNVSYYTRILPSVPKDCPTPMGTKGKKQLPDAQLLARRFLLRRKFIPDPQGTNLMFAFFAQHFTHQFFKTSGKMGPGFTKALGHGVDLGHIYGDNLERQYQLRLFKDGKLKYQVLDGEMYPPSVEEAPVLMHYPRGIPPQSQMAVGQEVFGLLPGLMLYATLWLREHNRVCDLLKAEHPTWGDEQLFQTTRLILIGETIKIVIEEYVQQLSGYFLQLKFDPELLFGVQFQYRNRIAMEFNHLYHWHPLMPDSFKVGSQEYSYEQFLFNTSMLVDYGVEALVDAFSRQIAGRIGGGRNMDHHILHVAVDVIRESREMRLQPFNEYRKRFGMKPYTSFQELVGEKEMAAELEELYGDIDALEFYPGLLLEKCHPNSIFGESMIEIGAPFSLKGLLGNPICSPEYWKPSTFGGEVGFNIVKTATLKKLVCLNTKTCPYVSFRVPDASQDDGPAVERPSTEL

Structure (SMILES)	IC50 (IL-1β [3]) [µM]	IC50 (TNFα [4]) [µM]	COX-1 percentage inhibition (cyclooxygenase-1)	IC50 (IL-1β [1]) [µM]	IC50 (TNFα [2]) [µM]	IC50 (5-lipoxygenase) [µM]	inhibition at 10 µM (IL-1β [3]; [5]) [%]	inhibition at 10 µM (TNFα [4]; [6]) [%]	other results
O=C(O)c1c(-c2ccncc2)c(-c2ccc(F)cc2)n2c1SCC2 [Example 11, 5-(4-Fluorophenyl)-6-(4-pyridyl)-2,3-dihydro-pyrrole-[2,1-b]-thiazole-7-carboxylic acid]	2.3	6.8	10/33%						IL-1β percentage inhibition (IL-1β [1]; at 100 μmol): 45%; TNFα percentage inhibition (TNFα [2]; at 100 μmol): 45%; 5-LO percentage inhibition (5-lipoxygenase; at 10 μmol): 10/30%
O=C(O)c1c(-c2ccncc2)c(-c2ccc(F)cc2)n2c1CCC2 [Example 2, 3-(4-Fluorophenyl)-2-(4-pyridyl)-6,7-dihydro-5H-pyrrolizine-1-carboxylic acid]				2.9	16		17	37	
OCc1c(-c2ccncc2)c(-c2ccc(F)cc2)n2c1SCC2 [Example 12, [5-(4-Fluorophenyl)-6-(4-pyridyl)-2,3-dihydro-pyrrolo-[2,1-b]-thiazol-7-yl]methanol]	7.6			76	45			44	
O=C(O)c1c(-c2ccncc2)c(-c2cccs2)n2c1CCC2 [Example 7, 3-(2-Thienyl)-2-(4-pyridyl)-6,7-dihydro-5H-pyrrolizine-1-carboxylic acid]			10/40%	52	48				
Fc1ccc(-c2c(-c3ccncc3)cc3n2CCS3)cc1 [Example 14, 5-(4-Fluorophenyl)-6-pyridin-4-yl-2,3-dihydro-pyrrolo-[2,1-b]-thiazole]	8.5	7.6				2.4			IC50 (cyclooxygenase-1; human platelets, read-out: COX-1 IC50): 2.3 µM
Cc1c(-c2ccncc2)c(-c2ccc(F)cc2)n2c1SCC2 [Example 13, 5-(4-Fluorophenyl)-7-methyl-6-pyridin-4-yl-2,3-dihydropyrrolo-[2,1-b]-thiazole]		8.1	10/45%	80	41	0.04	43		
Cc1c(-c2ccncc2)c(-c2ccc(F)cc2)n2c1CCCC2 [Example 17, 3-(4-Fluorophenyl)-1-methyl-2-(4-pyridyl)-5,6,7,8-tetrahydroindolizine]		4	10/48%	33	39	2.2	67		inhibition at 1 µM (IL-1β [3]; 4 h, at 1 μmol, read-out: IL-1β percentage inhibition): 0%
Fc1ccc(-c2c(-c3ccccc3)c3n(c2-c2ccncc2)CCC3)cc1 [Example 25]		87							

More lines, main results first:

IC50 (IL-1β [3]) [µM]	IC50 (TNFα [4]) [µM]	COX-1 percentage inhibition (cyclooxygenase-1)	IC50 (IL-1β [1]) [µM]	IC50 (TNFα [2]) [µM]	IC50 (5-lipoxygenase) [µM]	Structure (SMILES)	inhibition at 10 µM (IL-1β [3]; [5]) [%]	inhibition at 10 µM (TNFα [4]; [6]) [%]	other results
		10/11%	22	38	1.3	CCOC(=O)c1c(-c2ccncc2)c(-c2ccc(Cl)s2)n2c1CCC2 [Example 9A, Ethyl 3-(5-chloro-2-thienyl)-2-(4-pyridyl)-6,7-dihydro-5H-pyrrolizine-1-carboxylate]	47	38	
1.4	1.4				2	CCOC(=O)c1c(-c2ccncc2)c2n(c1-c1ccc(F)cc1)CCC2 [Example 1B, Ethyl 3-(4-fluorophenyl)-1-(4-pyridyl)-6,7-dihydro-5H-pyrrolizine-2-carboxylate]		60	inhibition at 1 µM (TNFα [4]; 4 h, at 1 μmol, read-out: TNFα percentage inhibition): 12%
			30	30		CCOC(=O)c1c(-c2ccncc2)c(-c2ccc(F)cc2)n2c1CCC2 [Example 1A, Ethyl 3-(4-fluorophenyl)-2-(4-pyridyl)-6,7-dihydro-5H-pyrrolizine-1-carboxylate]	21	13	
